Where “and” joins values, the source holds several entries; their conditions need not be identical. Identical values can stand only once. Entries after “also recorded” stand apart in the source; their conditions may differ. Like-named read-outs stand apart in the source and are kept apart here.
Key:
mouse reticulocytes = settings: for bone marrow toxicity and micronucleus formation on dose escalation (in words): increased dose levels in male Balb/c mice; for PCE/RBC (%): tail vein, once per day for four days, blood on day 5
Method: Male Balb/c mice were then injected with 0.1 ml of a compound solution via the tail vein. At least 3 mice were injected per dose level. Saline only was used as a negative control. For a positive control, cyclophosphamide (cycloPP) was administered at a dose of 30 mg/kg. In the experimental group, the injections were repeated once per day for four days. In the positive control group, the sample was administered only once, on day three. On day 5, several microliters of blood were withdrawn from each subject and smeared on a glass slide. Cells were fixed in absolute methanol and stored in a slide rack.
For analysis, cells were stained with acridine orange and visualized under a fluorescence microscope by counting: (i) the number of reticulocytes per 5000 erythrocytes; and (ii) the number of micronucleated reticulocytes per 1000 reticulocytes. Reticulocytes were distinguished by their red fluorescence due to the presence of RNA. Micronuclei were distinguished by their green fluorescence due to the presence of DNA. The percentage of reticulocytes (%PCE) was then calculated. A decrease in the frequency of […] in the percentage of reticulocytes, is an indication of bone marrow toxicity. The percentage of reticulocytes with micronuclei (%PCE with MN) was also calculated. An increase in %PCE with MN is a measure of clastogenicity.
After initial results were determined, the experiment was repeated using increased dose levels, until: (i) Micronucleus formation was seen; or (ii) Bone marrow toxicity was observed; or (iii) The lethal dose was reached; or (iv) A dose of 5 g/kg was administered.

[1] = system: Salmonella tester strain TA1537; experiment: Ames test, strain TA1537
Method: (§1) In this example the compounds of the present invention are tested for their dark mutagenicity using an Ames assay. The procedures used for the Salmonella mutagenicity test as described in detail by Maron and Ames were followed exactly. Maron, D. M. and B. N. Ames, Mutation Research 113: 173 ( 1983). A brief description for each procedure is given here. The tester strains TA97a, TA98, TA100, TA102, TA1537 and TA1538 were obtained from Dr. Ames. TA97a, TA98, TA1537 and TA1538 are frameshift tester strains. TA100 and TA102 are base-substitution tester strains. Upon receipt each strain was cultured under a variety of conditions to confirm the genotypes specific to the strains.
(§2) The first tests done with the strains were to determine the range of spontaneous reversion for each of the strains. With each mutagenicity experiment the spontaneous reversion of the tester strains to histidine independence was measured and expressed as the number of spontaneous revertants per plate. This served as the background controls.
(§3) For all experiments, the pre-incubation procedure was used. In this procedure one vial of each tester strain was thawed and 20 μL of this culture was added to 6 mL of Oxoid Nutrient Broth #2. This solution was allowed to shake for 10 hours at 37° C. In the pre-incubation procedure, 0.1 mL of this overnight culture was added to each of the required number of sterile test tubes. To half of the tubes 0.5 mL of a 10% S-9 solution containing Aroclor 1254 induced rat liver extract (Molecular Toxicology Inc., Annapolis, Md.), and MgCl2, KCl, glucose-6-phosphate, NADP, and sodium phosphate buffer (Sigma, St. Louis, Mo.) were added. To the other half of the tubes 0.5 mL of 0.2M sodium phospate buffer, pH 7.4, was used in place of the S-9 mixture (the—S9samples). Finally 0.1 mL of the test solution containing either 0, 0.1, 0.5, 1, 5, 10, 50, 100, 250, or 500 μg/mL of the test compound was added. The 0.7 mL mixture was vortexed and then pre-incubated while shaking for 20 minutes at 37° C. After shaking, 2 mL of molten top agar supplemented with histidine and biotin were added to the 0.7 mL mixture and immediately poured onto a minimal glucose agar plate (volume of base agar was 20 mL). The top agar was allowed 30 minutes to solidify and then the plates were inverted and incubated for 44 hours at 37° C. After incubation the number of revertant colonies on each plate were counted. […] (“n” represents the number of replicates performed for each data point.)

HIV-1 = settings: for HIV Log Kill: 1 minute irradiation
[2] = system: Salmonella tester strain TA1538
Method: as §1, §2, §3

[3] = system: Duck Hepatitis B Virus (DHBV); experiment: Inactivation of Duck Hepatitis B Virus in platelet concentrate, read by PCR amplification; format: biochemical; settings: 5 J/cm^2 UVA
Method: DHBV in duck yolk was added to platelet concentrate (PC) to a final concentration of 2×10^7 particles per mL and mixed by gentle rocking for ≧15 min. […] Samples, including controls without added psoralen, were irradiated with 5 J/cm^2 UVA, with mixing at 1 J/cm^2 increments. After irradiation, leukocytes and platelets were separated from virus by centrifugation. The supernatant containing DHBV was digested overnight with 50 μg/mL proteinase K in a buffer containing 0.5% sodium dodecyl sulphate, 20 mM Tris buffer, pH 8.0, and 5 mM EDTA at 55° C. Samples were extracted with phenol-chloroform and chloroform, followed by ethanol precipitation. Purified DNA was then used in PCR amplification reactions with a starting input of 10^6 DHBV genomes from each sample. […] The amplification was followed by a 7 min incubation at 72° C. to yield full length products. [[…]-^32P] dCTP was added at an amount of […] in order to detect and quantify the resulting products. Products were separated by electrophoresis on denaturing polyacrylamide slab gels and counted. The absence of signal in a given reaction was taken to indicate effective inactivation of DHBV.

[4] = system: Salmonella typhimurium tester strains; experiment: Ames Salmonella dark mutagenicity test, overall assessment; format: cell-based; settings: two-fold or greater increase in revertants above background and dose dependence
Method: A brief description for each procedure is given here. […] TA97a, TA98, TA1537 and TA1538 are frameshift tester strains. TA100 and TA102 are base-substitution tester strains.
This served as the background controls.
For all experiments, the pre-incubation procedure was used.

platelets = experiment: Platelet count, Sysmex cell counter; format: cell-based, human; settings: 100 μM compound, 5 Joules/cm^2, Day 5; FIGS. 21A-24A
Method: Samples were diluted 1:3 in blood bank saline.

[5] = 16 μM, starting titer approximately 5 logs (Table 10)

Cc1oc2c(C)c3oc(=O)cc(C)c3cc2c1COCCN [Compound 2, 4′-(4-amino-2-oxa)butyl-4,5′,8-trimethylpsoralen]
bone marrow toxicity and micronucleus formation on dose escalation (in words) (mouse reticulocytes): the acutely lethal dose was reached before there were any signs of bone marrow toxicity or micronucleus formation
revertant colonies per plate ([1]; TA1537 + S9, 10 μg/plate): 5
revertant colonies per plate ([1]; TA1537 + S9, 50 μg/plate): 40
revertant colonies per plate ([1]; TA1537 + S9, 100 μg/plate): 88
revertant colonies per plate ([1]; TA1537 + S9, 250 μg/plate): 744
revertant colonies per plate ([1]; TA1537 + S9, 500 μg/plate): 395
revertant colonies per plate ([1]; TA1537 − S9, 10 μg/plate): 36
revertant colonies per plate ([1]; TA1537 − S9, 50 μg/plate): 282
revertant colonies per plate ([1]; TA1537 − S9, 100 μg/plate): 258
revertant colonies per plate ([1]; TA1537 − S9, 250 μg/plate): 176
revertant colonies per plate ([1]; TA1537 − S9, 500 μg/plate): 114
HIV Log Kill (HIV-1; [5]): 1.4 log
HIV Log Kill (HIV-1; 32 μM, starting titer approximately 5 logs (Table 10)): 3.8 log
HIV Log Kill (HIV-1; 64 μM, starting titer approximately 5 logs (Table 10)): >4.5 log
HIV inactivation compared with AMT (in words) (HIV-1; cell-free HIV, 64 μM of compound or higher for compounds 2 and 3): significantly more active than AMT
revertant colonies per plate ([2]; TA1538 + S9, 5 μg/plate): 2
revertant colonies per plate ([2]; TA1538 + S9, 10 μg/plate): 4
revertant colonies per plate ([2]; TA1538 − S9, 5 μg/plate): −8
revertant colonies per plate ([2]; TA1538 − S9, 10 μg/plate): −13
PCR of the 1072 bp DHBV amplicon ([3]; all concentrations (35, 70, and 100 mM as printed), platelet concentrate): complete inhibition of PCR
PCR of the smaller DHBV amplicons (127 bp, 327 bp) compared with AMT ([3]; same concentrations): inhibited PCR of the smaller amplicons better than did AMT
mutagenic response in the Ames assay (in words) [4]: weak frameshift mutagenicity in the presence of S9 in TA98 and TA1537

Cc1cc(=O)oc2c(C)c3oc(COCCN)c(C)c3cc12 [Compound 18, 5′-(4-amino-2-oxa)butyl-4,4′,8-trimethylpsoralen]
platelet count, treated against controls (in words) (platelets): higher platelet count than samples treated with light alone
PCE/RBC (%) (mouse reticulocytes; 3.75 mg/kg): 3.61 ± 1.14%
PCE/RBC (%) (mouse reticulocytes; 7.5 mg/kg): 3.59 ± 0.33%
PCE/RBC (%) (mouse reticulocytes; 20 mg/kg): 3.48 ± 0.79%
bone marrow toxicity and micronucleus formation on dose escalation (in words) (mouse reticulocytes): the acutely lethal dose was reached before there were any signs of bone marrow toxicity or micronucleus formation
revertant colonies per plate ([1]; TA1537 + S9, 10 μg/plate): 8
revertant colonies per plate ([1]; TA1537 + S9, 50 μg/plate): 6
revertant colonies per plate ([1]; TA1537 + S9, 100 μg/plate): 26
revertant colonies per plate ([1]; TA1537 + S9, 200 μg/plate): 42
revertant colonies per plate ([1]; TA1537 − S9, 10 μg/plate): 21
revertant colonies per plate ([1]; TA1537 − S9, 50 μg/plate): 303
revertant colonies per plate ([1]; TA1537 − S9, 100 μg/plate): 390
revertant colonies per plate ([1]; TA1537 − S9, 200 μg/plate): 225
HIV Log Kill (HIV-1; 16 μM, starting titer approximately 5.4 logs (Table 11)): 1.0 log
HIV Log Kill (HIV-1; 32 μM, starting titer approximately 5.4 logs (Table 11)): 1.0 log
HIV Log Kill (HIV-1; 64 μM, starting titer approximately 5.4 logs (Table 11)): 3.1 log
mutagenic response in the Ames assay (in words) [4]: only a weak response at high concentrations in the presence of S9

Cc1oc2c(C)c3oc(=O)cc(C)c3cc2c1CN [AMT, 4′-Aminomethyl-4,5′,8-trimethylpsoralen, reference compound]
revertant colonies per plate ([1]; TA1537 + S9, 0.1 μg/plate): 2
revertant colonies per plate ([1]; TA1537 + S9, 0.5 μg/plate): 2
revertant colonies per plate ([1]; TA1537 + S9, 1 μg/plate): 3
revertant colonies per plate ([1]; TA1537 + S9, 5 μg/plate): 22
revertant colonies per plate ([1]; TA1537 + S9, 10 μg/plate): 30
revertant colonies per plate ([1]; TA1537 + S9, 50 μg/plate): 94
revertant colonies per plate ([1]; TA1537 + S9, 100 μg/plate): 686 and 500
revertant colonies per plate ([1]; TA1537 + S9, 250 μg/plate): 3738
revertant colonies per plate ([1]; TA1537 − S9, 0.1 μg/plate): 0
revertant colonies per plate ([1]; TA1537 − S9, 0.5 μg/plate): 3
revertant colonies per plate ([1]; TA1537 − S9, 1 μg/plate): 5
revertant colonies per plate ([1]; TA1537 − S9, 5 μg/plate): 44
revertant colonies per plate ([1]; TA1537 − S9, 10 μg/plate): 52
revertant colonies per plate ([1]; TA1537 − S9, 50 μg/plate): 2688
revertant colonies per plate ([1]; TA1537 − S9, 250 μg/plate): 434
HIV Log Kill (HIV-1; [5]): 1.4 log
PCR of the 1072 bp DHBV amplicon ([3]; 35 mM final concentration (so in the source)): a signal could be detected
PCR of the 1072 bp DHBV amplicon ([3]; 70 and 100 mM levels (so in the source)): inhibited PCR amplification
mutagenic response in the Ames assay (in words) [4]: showed frameshift mutagenicity at between 5 and 10 μg/plate in TA97a and TA98, at 5 μg/plate in TA1537 and at 1 μg/plate in TA1538; also recorded: no significant base-substitution mutations

— patent US6544727B1, “Methods and devices for the removal of psoralens from blood products” (Cerus Corporation, priority 1995, dated 2003)
